In this assay the target is T1, hmGluR1 receptor (Homo sapiens, UniProt Q13255).
T1 construct: expressed in transfected cells; host or cells: CHO
The assay is described as follows: IC50 Determination: intracellular calcium mobilization (FLIPR) in a CHO cell line stably expressing hmGluR1 receptor, against Quisqualate. The class given is cell-based. Particulars: CHO cells expressing hmGluR1, against Quisqualate 1 μM (EC80), compounds added 10 minutes before agonist. How it is done: A CHO cell line stably expressing hmGluR1 receptor was established. One day prior to assay, cells were split in growth media at concentration of 50,000 cells/well in a volume of 100 μl and seeded into black clear-bottom 96-well plates. After two to six hours, when cells were well attached to the plate, growth medium was replaced with assay medium (100 μL) consisting of DMEM high glucose, supplemented with GPT (1 U/mL) and sodium pyruvate, 1 mM. Following overnight incubation, medium was discarded and cells were loaded for 2 hours with dye from the Calcium 3 Assay Reagent Kit (Molecular Devices, # R8033), prepared according to manufacturers' instructions. A 96-tip pipettor/fluorometric imaging plate reader (FLIPR 384; Molecular Devices) was used and intracellular calcium mobilization was measured by increases in fluorescence upon agonist Quisqualate stimulation following 6 sec-baseline measurement. Test compounds were added 10 minutes before Quisqualate. IC50 determinations for tested compounds were generated against Quisqualate 1 μM corresponding to EC80 value in a standard dose response curve.
On the technique in general: A change in cytosolic calcium serves as a functional read-out for many receptors and channels.

Among the data in patent US7482360B2, “Fused tetracyclic mGluR1 antagonists as therapeutic agents” (Schering Corporation, priority 2005, dated 2009) are IC50 values, retold here.

pIC50: −log10 of the molar value. Read-outs that look alike come from different tables or passages of the source.

T1 sequence (Q13255 19-1194): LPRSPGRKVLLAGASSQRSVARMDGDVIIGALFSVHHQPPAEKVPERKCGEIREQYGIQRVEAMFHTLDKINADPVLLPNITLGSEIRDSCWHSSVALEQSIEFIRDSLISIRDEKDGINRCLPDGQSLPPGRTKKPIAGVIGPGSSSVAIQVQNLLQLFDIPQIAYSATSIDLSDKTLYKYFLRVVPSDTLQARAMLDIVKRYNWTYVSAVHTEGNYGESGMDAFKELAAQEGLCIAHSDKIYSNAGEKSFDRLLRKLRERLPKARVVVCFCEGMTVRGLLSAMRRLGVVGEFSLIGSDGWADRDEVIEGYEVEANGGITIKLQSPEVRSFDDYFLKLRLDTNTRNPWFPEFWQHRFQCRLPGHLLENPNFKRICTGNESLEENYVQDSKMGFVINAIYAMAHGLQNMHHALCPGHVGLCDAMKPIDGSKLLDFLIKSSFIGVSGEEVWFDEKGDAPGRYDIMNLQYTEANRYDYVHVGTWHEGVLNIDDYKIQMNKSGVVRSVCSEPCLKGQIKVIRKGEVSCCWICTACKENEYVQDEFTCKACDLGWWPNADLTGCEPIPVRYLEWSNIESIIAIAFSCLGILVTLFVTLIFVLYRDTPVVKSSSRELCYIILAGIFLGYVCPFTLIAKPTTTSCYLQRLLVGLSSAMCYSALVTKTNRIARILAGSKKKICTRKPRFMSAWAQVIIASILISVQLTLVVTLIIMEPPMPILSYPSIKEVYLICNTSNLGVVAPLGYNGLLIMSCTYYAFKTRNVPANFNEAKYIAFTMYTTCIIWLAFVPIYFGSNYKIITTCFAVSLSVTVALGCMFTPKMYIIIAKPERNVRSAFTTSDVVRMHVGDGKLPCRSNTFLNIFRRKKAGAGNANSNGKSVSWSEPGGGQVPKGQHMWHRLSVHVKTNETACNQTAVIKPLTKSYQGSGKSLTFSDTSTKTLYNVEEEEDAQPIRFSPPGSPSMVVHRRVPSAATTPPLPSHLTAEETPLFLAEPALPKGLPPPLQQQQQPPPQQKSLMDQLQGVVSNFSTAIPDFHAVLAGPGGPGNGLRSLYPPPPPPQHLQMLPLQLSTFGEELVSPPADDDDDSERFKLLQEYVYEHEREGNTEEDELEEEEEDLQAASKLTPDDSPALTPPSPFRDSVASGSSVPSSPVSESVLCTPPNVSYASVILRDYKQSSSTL

On to `Cc1ccc(-n2cnc3c(sc4ncc5cn[nH]c5c43)c2=O)cc1` [Compound 20b], for which the pIC50 was 7.77 (read-out: mGluR1 IC50) and > 7.70 (read-out: mGluR1 IC50 rating).

As for `CSc1nc2c(cnc3sc4c(=O)n(-c5ccc(C)cc5)cnc4c32)s1` [Compound 29], the pIC50 (read-out: mGluR1 IC50 rating) was 6.00 to 7.00.

With `O=c1c2sc3ncc4nc[nH]c4c3c2ncn1-c1ccc(Cl)cc1` [Compound 35], the pIC50 is, setting by setting: (read-out: mGluR1 IC50) 8.22; (read-out: mGluR1 IC50 rating) > 7.70.

Regarding `Cc1ccc(-n2cnc3c(sc4ncc5sc(=O)[nH]c5c43)c2=O)cc1` [Compound 30], where the note is “read-out: mGluR1 IC50 rating”, the pIC50 was 6.00 to 7.00.

Take `O=c1c2sc3ncc(Br)c(NCCO)c3c2ncn1-c1ccc(Cl)cc1` [Compound 37a]: the pIC50 runs as follows: (read-out: mGluR1 IC50) 7.85; (read-out: mGluR1 IC50 rating) > 7.70.

For the molecule `Cn1cnc2cnc3sc4c(=O)n(-c5ccc(Cl)cc5)cnc4c3c21` [Compound 36], the pIC50 (read-out: mGluR1 IC50) was 8.01 and the negative-log IC50 (pIC50) (read-out: mGluR1 IC50 rating) is > 7.70.

Consider `C[C@@H](O)CNc1c(Br)cnc2sc3c(=O)n(-c4ccc(Cl)cc4)cnc3c12` [Compound 37b], for which the negative-log IC50 (pIC50) (read-out: mGluR1 IC50 rating) was < 6.00.

In the case of `COc1ccc(-n2cnc3c(sc4ncc5cc[nH]c5c43)c2=O)cc1` [Compound 27b], the pIC50 is 8.31 (read-out: mGluR1 IC50) and > 7.70 (read-out: mGluR1 IC50 rating).

For `Cc1ccc(-n2cnc3c(sc4ncc5c(c43)NCCO5)c2=O)cc1` [Compound 38h], the pIC50 is, setting by setting: (read-out: mGluR1 IC50) 8.66; (read-out: mGluR1 IC50 rating) > 7.70.

Consider `O=c1c2sc3ncc4c(c3c2ncn1-c1ccc(Cl)cc1)NCCO4` [Compound 38a], for which the pIC50 reads like this: (read-out: mGluR1 IC50) 8.54; (read-out: mGluR1 IC50 rating) > 7.70.

Consider `Cn1ccc2cnc3sc4c(=O)n(C5CCCCC5)cnc4c3c21` [Compound 6], for which the pIC50 (read-out: mGluR1 IC50 rating) is 7.00 to 7.70.

On to `Cn1ncc2cnc3sc4c(=O)n(C5CCCCC5)cnc4c3c21` [Compound 4], for which the pIC50 (read-out: mGluR1 IC50 rating) is 6.00 to 7.00.

As for `Cc1ccc(-n2cnc3c(sc4ncc5c(c43)NC[C@@H](C)O5)c2=O)cc1` [Compound 38g], the pIC50 reads like this: (read-out: mGluR1 IC50) 8.28; (read-out: mGluR1 IC50 rating) > 7.70.

Take `C[C@H](CO)Nc1c(Br)cnc2sc3c(=O)n(-c4ccc(Cl)cc4)cnc3c12` [Compound 37d]: under “read-out: mGluR1 IC50 rating”, the negative-log IC50 (pIC50) was < 6.00.

Consider `Cc1ccc(-n2cnc3c(sc4ncc5sc(=S)[nH]c5c43)c2=O)cc1` [Compound 28], for which the pIC50 (read-out: mGluR1 IC50 rating) was 6.00 to 7.00.

As for `Cc1ccc(-n2cnc3c(sc4ncc5c(c43)N(C)CCO5)c2=O)cc1` [Compound 38f], the pIC50 was 8.24 (read-out: mGluR1 IC50) and > 7.70 (read-out: mGluR1 IC50 rating).

`C[C@H]1CNc2c(cnc3sc4c(=O)n(-c5ccc(Cl)cc5)cnc4c23)O1` [Compound 38c]: the pIC50 (read-out: mGluR1 IC50) was 8.66 and the pIC50 (read-out: mGluR1 IC50 rating) is > 7.70.

Take `C[C@@H]1COc2cnc3sc4c(=O)n(-c5ccc(Cl)cc5)cnc4c3c2N1` [Compound 38d]: the pIC50 (read-out: mGluR1 IC50 rating) was 7.00 to 7.70.

For the molecule `Cc1ccc(-n2cnc3c(sc4ncc5cc[nH]c5c43)c2=O)cc1` [Compound 27a], the pIC50 runs as follows: (read-out: mGluR1 IC50) 9.15; (read-out: mGluR1 IC50 rating) > 7.70.

Regarding `Cc1ccc(-n2cnc3c(sc4ncc5c(c43)OCC5)c2=O)cc1` [Compound 24], the pIC50 (read-out: mGluR1 IC50 rating) is 6.00 to 7.00.

`Cn1cnc2cnc3sc4c(=O)n(C5CCCCC5)cnc4c3c21` [Compound 9]: the pIC50 (read-out: mGluR1 IC50 rating) was 7.00 to 7.70.

As to `C[C@H]1COc2cnc3sc4c(=O)n(-c5ccc(Cl)cc5)cnc4c3c2N1` [Compound 38e], the pIC50 (read-out: mGluR1 IC50) is 7.92 and the negative-log IC50 (pIC50) (read-out: mGluR1 IC50 rating) was > 7.70.

With `C[C@H](O)CNc1c(Br)cnc2sc3c(=O)n(-c4ccc(Cl)cc4)cnc3c12` [Compound 37c], the pIC50 (read-out: mGluR1 IC50 rating) is < 6.00.

As to `Cc1ccc(-n2cnc3c(sc4ncc5ccn(C)c5c43)c2=O)cc1` [Compound 31], for the setting “read-out: mGluR1 IC50 rating”, the pIC50 is 7.00 to 7.70.

On to `C[C@@H](CO)Nc1c(Br)cnc2sc3c(=O)n(-c4ccc(Cl)cc4)cnc3c12` [Compound 37e], for which the pIC50 (read-out: mGluR1 IC50 rating) was < 6.00.

For the molecule `COc1ccc(-n2cnc3c(sc4ncc5c(c43)NCCO5)c2=O)cc1` [Compound 38i], the pIC50 runs as follows: (read-out: mGluR1 IC50) 8.60; (read-out: mGluR1 IC50 rating) > 7.70.

Turning to `O=c1c2sc3ncc4nn[nH]c4c3c2ncn1C1CCCCC1` [Compound 13], under “read-out: mGluR1 IC50 rating”, the pIC50 is 6.00 to 7.00.

As for `O=c1c2sc3ncc4cc[nH]c4c3c2ncn1-c1ccc(Cl)cc1` [Compound 34], the negative-log IC50 (pIC50) by setting is: (read-out: mGluR1 IC50) 9.40; (read-out: mGluR1 IC50 rating) > 7.70.

With `O=c1c2sc3ncc4cn[nH]c4c3c2ncn1-c1ccc(Cl)cc1` [Compound 20a], the pIC50 (read-out: mGluR1 IC50) is 7.42 and the negative-log IC50 (pIC50) (read-out: mGluR1 IC50 rating) is 7.00 to 7.70.

Consider `O=c1c2sc3ncc4nc[nH]c4c3c2ncn1C1CCCCC1` [Compound 12], for which the pIC50 reads like this: (read-out: mGluR1 IC50) 7.64; (read-out: mGluR1 IC50 rating) 7.00 to 7.70.

As to `Cc1ccc(-n2cnc3c(sc4ncc(Br)c(N(C)CCO)c43)c2=O)cc1` [Compound 37f], the pIC50 (read-out: mGluR1 IC50 rating) was 6.00 to 7.00.

Turning to `C[C@@H]1CNc2c(cnc3sc4c(=O)n(-c5ccc(Cl)cc5)cnc4c23)O1` [Compound 38b], the pIC50 was 8.85 (read-out: mGluR1 IC50) and > 7.70 (read-out: mGluR1 IC50 rating).

One may read the pIC50 as −log10 of the IC50, conventionally taken in molar units.
